Data reported in the supplement of paper PMC3493320.

Test system: NCI-H295R
Experiment: IC50 (antiproliferative, ATP content)
Conditions: 48 h
Summary of the method: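 Serum-free ITS-supplemented DMEM was used to seed 1500 adrenocortical carcinoma cells per well in 1536-well plates, which were cultured overnight. Eight final concentrations of each library compound, from 0.6 nM to 46 µM, were added by pin transfer, followed by 48 h at 37 °C in 5% CO2 and a CellTiter-Glo ATP read after 20 min at room temperature. Luminescence was set against vehicle and positive-control wells, and the IC50 was obtained by logistic curve fitting. Any compound with no concentration response was entered as above the top dose.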

Row | IC50 | SMILES
1 | > 46 µM | CC(=O)Oc1c(C)c(C)c2c(c1C)CC[C@@](C)(CCC[C@H](C)CCC[C@H](C)CCCC(C)C)O2
2 | > 46 µM | CCCOC(=O)c1ccccc1O
3 | > 46 µM | Cc1nc2ccc(CN(C)c3ccc(C(=O)N[C@@H](CCC(=O)O)C(=O)O)s3)cc2c(=O)[nH]1
4 | > 46 µM | CC(=O)SC[C@H](Cc1ccccc1)C(=O)NCC(=O)OCc1ccccc1
5 | > 46 µM | CCCCCCOC(=O)c1cccnc1
6 | > 46 µM | CN(C)[C@@H]1C(O)=C(C(N)=O)C(=O)[C@@]2(O)C(O)=C3C(=O)c4c(O)cccc4[C@@](C)(O)[C@H]3[C@H](O)[C@@H]12.O.O
7 | > 46 µM | O=C(NC(Cc1cc(=O)[nH]c2ccccc12)C(=O)O)c1ccc(Cl)cc1 (stereo unspecified)
8 | > 46 µM | COc1cc2c(cc1OC)CC(=O)N(CCCN(C)C[C@H]1Cc3cc(OC)c(OC)cc31)CC2.Cl
9 | > 46 µM | NC(=O)c1ncn([C@@H]2O[C@H](CO)[C@@H](O)[C@H]2O)n1
10 | > 46 µM | CCCNCC(O)COc1ccccc1C(=O)CCc1ccccc1 (stereo unspecified)
11 | > 46 µM | Cc1ccccc1OCC(O)CNCCOc1ccc(C(N)=O)cc1 (stereo unspecified)
12 | > 46 µM | CC(=O)NC[C@H]1CN(c2ccc(N3CCOCC3)c(F)c2)C(=O)O1
13 | > 46 µM | O=C2N1[C@]([C@@]([H])2NC(C3=C(C)ON=C3C(C(Cl)=CC=C4)=C4F)=O)([H])SC(C)(C)[C@@H]1[C@@]([O-])=O.O.[Na+]
14 | > 46 µM | CCCCCCCCCCCCCCCC[N+](C)(C)CCN(Cc1ccc(OC)cc1)c1ncccn1.[Br-]
15 | > 46 µM | CC(C)c1nc(N(C)S(C)(=O)=O)nc(-c2ccc(F)cc2)c1/C=C/C(O)CC(O)CC(=O)[O-].CC(C)c1nc(N(C)S(C)(=O)=O)nc(-c2ccc(F)cc2)c1/C=C/C(O)CC(O)CC(=O)[O-].[Ca+2] (stereo unspecified)
16 | > 46 µM | CCCCCCCCCCCCCCCCCCO
17 | > 46 µM | CN1CCN(C2=Nc3cc(Cl)ccc3Nc3ccccc32)CC1
18 | > 46 µM | Cc1cc(C)c(NC(=O)CN(CC(=O)O)CC(=O)O)c(C)c1Br

Row | IC50 | SMILES
19 | > 46 µM | Cl.NCCCC(N)(C(=O)O)C(F)F (stereo unspecified)
20 | > 46 µM | O=c1[nH]c(=O)c2ccccc2o1
21 | > 46 µM | O=C1C[C@@H]([C@](N[C@@H](CC3=CNC=N3)C(N2[C@]([H])(C(N)=O)CCC2)=O)=O)NC(N1C)=O
22 | > 46 µM | Cl.Nc1c2c(nc3c1CCC3)CCCC2.O
23 | > 46 µM | CC(C)c1ncc([N+](=O)[O-])n1C
24 | > 46 µM | CC(C)(C)NCC(O)COc1cccc2c1CCC(=O)N2.Cl (stereo unspecified)
25 | > 46 µM | O[C@H](C)[C@@H](N[C@]([C@@H]2C[C@@H](CCC)CN2C)=O)[C@@H]1[C@H](O)[C@H](O)[C@@H](O)[C@@H](SC)O1.Cl
26 | > 46 µM | CCCCCCNC(=O)n1cc(F)c(=O)[nH]c1=O
27 | > 46 µM | Cc1cc(=O)oc2cc(O)ccc12
28 | > 46 µM | O[C@]([C@@H]1CSCN1)=O
29 | > 46 µM | Cc1cccc(C)c1NC(=O)CC12CCCN1CCC2
30 | > 46 µM | CC(C)Cn1cnc2c1c(=O)n(C)c(=O)n2C
31 | > 46 µM | Cc1nc(Nc2ncc(C(=O)Nc3c(C)cccc3Cl)s2)cc(N2CCN(CCO)CC2)n1
32 | > 46 µM | CC(O)CO (stereo unspecified)
33 | > 46 µM | CCCOC(=O)c1ccc(N)cc1
34 | > 46 µM | Nc1ccc(S(N)(=O)=O)cc1
35 | > 46 µM | N[C@H](CC(=O)O)C(=O)O
36 | > 46 µM | O=[C@](O)[C@H]2N(C([C@H](C)N[C@H]([C@@](OCC)=O)CCC3=CC=CC=C3)=O)[C@@]1([H])CCCC[C@@]([H])1C2

Row | SMILES | IC50
37 | O=C1C[C@@H]2OCC=C3CN4CC[C@]56c7ccccc7N1[C@H]5[C@H]2[C@H]3C[C@H]46 | > 46 µM
38 | CCCCCCC(=O)CCCCCC/C=C/C[C@@H](O)[C@H](O)[C@@](N)(CO)C(=O)O | > 46 µM
39 | CC(C)NCC(O)c1cc(O)cc(O)c1.CC(C)NCC(O)c1cc(O)cc(O)c1.O=S(=O)(O)O (stereo unspecified) | > 46 µM
40 | CNC1(c2ccccc2Cl)CCCCC1=O (stereo unspecified) | > 46 µM
41 | CN1CCN(C(=O)O[C@H]2c3nccnc3C(=O)N2c2ccc(Cl)cn2)CC1 | > 46 µM
